Test [1] deals with T1, human QC (Homo sapiens, UniProt Q16769).
T1 construct: The cDNA of the mature QC starting with codon 38 was fused in frame with the plasmid encoded 6× histidine tag; 6xHis; made in house; host or cells: Pichia pastoris X33 (pPICZαB, secreted); also E. coli M15 (pQE-31)
Nature of the test: QC inhibitor assay (fluorometric, H-Gln-AMC / H-Gln-βNA, pyroglutamyl aminopeptidase coupled). The format is biochemical.

Test [2] addresses mammalian QC (Bos taurus, UniProt Q28120). To be noted: cited from earlier work.
In test [3] the target is T1, human QC. The experiment in a line: Continuous spectrophotometric QC assay (glutamate dehydrogenase coupled), substrate kinetics.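 For all read-outs here: initial rates read on a microplate reader at 30 °C, with enzyme activity quantified against an ammonia calibration curve under the same assay conditions.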 The format is biochemical. Conditions: for Ki* (mM): for substrate inhibition.
Experimental: The initial velocities were evaluated and the enzymatic activity was determined from a standard curve of ammonia under assay conditions. All samples were measured at 30° C., using either the [sequence]luor Plus or the Sunrise (both from TECAN) reader for microplates. Kinetic data was evaluated using GraFit software.
Test [4] concerns the target T1, human QC. Nature of the test: Qualitative substrate conversion (MALDI-TOF / fluorometric). Type of test: biochemical. The arrangement: key to substrate conversion, determined qualitatively: *: determined qualitatively by MALDI-TOF experiments. To be noted: for substrate conversion, determined qualitatively: Human QC, MALDI-TOF. The protocol: Matrix-assisted laser desorption/ionization mass spectrometry was carried out using the Hewlett-Packard G2025 LD-TOF System with a linear time of flight analyzer. […] Samples (5 μl) were mixed with equal volumes of the matrix solution. For matrix solution we used DHAP/DAHC, prepared by solving 30 mg 2′,6′-dihydroxyacetophenone (Aldrich) and 44 mg diammonium hydrogen citrate (Fluka) in 1 ml acetonitrile/0.1% TFA in water (1/1, v/v). A small volume (≈1 μl) of the matrix-analyte-mixture was transferred to a probe tip and immediately evaporated in a vacuum chamber (Hewlett-Packard G2024A sample prep accessory) to ensure rapid and homogeneous sample crystallization.
In order to further investigate the specificity and selectivity of the QCs, peptides were synthesized comprising either a modified N-terminal glutaminyl residue or a modified amino acid in the second position. […] Due to the cyclization of the glutaminyl residue or its analog, respectively, a mass difference of the substrate and the product of catalysis is detected. In cases of ammonia liberation of one mole per mole of substrate, the conversion was also analyzed quantitatively using the spectrophotometric assay.

Test [5] has as its target T1, human QC. Nature of the test: Long-term Glu1-cyclization of Aβ-derived peptides by recombinant human QC, MALDI-TOF. Type of test: biochemical. The protocol:
For long-term testing of Glu^1-cyclization, Aβ-derived peptides were incubated in 100 μl 0.1 M sodium acetate buffer, pH 5.2 or 0.1 M Bis-Tris buffer, pH 6.5 at 30° C. Peptides were applied in 0.5 mM [Aβ3-11a] or 0.15 mM [Aβ3-21a] concentrations, and 0.2 U QC was added all 24 hours. In case of Aβ3-21a, the assays contained 1% DMSO. At different times, samples were removed from the assay tube, peptides extracted using ZipTips (Millipore) according to the manufacturer's recommendations, mixed with matrix solution (1:1 v/v) and subsequently the mass spectra recorded. Negative controls did either contain no QC or heat deactivated enzyme.
The QC-catalyzed formation of [pGlu^3]Aβ3-11a and [pGlu^3]Aβ3-21a was investigated at pH 5.2 and 6.5, respectively. If the QC-inhibitor benzimidazole was added to the solution before starting the assay by addition of QC, substrate conversion resulting in [pGlu^3]Aβ3-11a or [pGlu^3]Aβ3-21a was suppressed (FIGS. 15E and F). If QC was boiled before addition, formation of the pGlu-peptides was negligible (FIGS. 15A and B).

Test [6] deals with T1, human QC. Conditions: cited from earlier work.
The mark [7] stands for this setting: Human QC, 0.05M Tris-HCl, pH 8.0.
Setting [8] is: Human QC, 0.05M Tris-HCl, pH 8.0, 0.5 M KCl.
Where [9] appears, read: recombinant human QC, absence of DMSO.
Where [10] appears, read: recombinant human QC, buffer containing 1% DMSO.

Like-named read-outs stand apart in the source and are kept apart here. Bridge positions count the residues as written; N and C are the ends. Ends that are not written are not given here. Peptide text beside a SMILES is read from it. Gln(NMe) = glutamine with N-methylated side-chain amide

T1 sequence (Q16769 29-361): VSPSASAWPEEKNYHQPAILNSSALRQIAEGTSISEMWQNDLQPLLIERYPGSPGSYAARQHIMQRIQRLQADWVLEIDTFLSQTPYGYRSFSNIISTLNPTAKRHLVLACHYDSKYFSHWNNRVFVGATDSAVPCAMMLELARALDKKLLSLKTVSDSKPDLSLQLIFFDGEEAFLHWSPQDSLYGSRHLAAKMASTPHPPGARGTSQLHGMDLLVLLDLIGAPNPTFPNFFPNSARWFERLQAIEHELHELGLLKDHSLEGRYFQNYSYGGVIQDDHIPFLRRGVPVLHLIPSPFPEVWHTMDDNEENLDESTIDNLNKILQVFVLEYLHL
mammalian QC, sequence (Q28120 29-361): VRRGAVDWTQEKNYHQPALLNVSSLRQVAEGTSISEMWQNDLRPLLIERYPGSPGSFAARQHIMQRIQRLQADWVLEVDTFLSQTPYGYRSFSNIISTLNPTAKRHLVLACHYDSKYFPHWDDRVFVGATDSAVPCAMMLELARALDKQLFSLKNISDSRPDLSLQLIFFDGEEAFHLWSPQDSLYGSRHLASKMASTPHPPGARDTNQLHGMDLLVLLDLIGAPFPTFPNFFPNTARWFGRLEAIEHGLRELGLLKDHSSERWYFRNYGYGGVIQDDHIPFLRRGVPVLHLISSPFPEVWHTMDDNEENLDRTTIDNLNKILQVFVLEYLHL

As for `NCCCn1ccnc1` [1-aminopropyl-imidazole], the “inhibition of human QC” value in test [1] was “one of the less effective compounds of this group”.
On the same count and under the same terms, under `O=C(c1ccccc1)n1ccnc1` [1-benzoylimidazole] stands “loss of inhibitory quality”; under `c1ccc(Cn2ccnc2)cc1` [1-benzylimidazole], “one of the most effective QC inhibitors”.
Still for that read-out and setting: the value for `Cn1ccnc1` [1-methylimidazole] was “improved binding to the active site”.
Still for that read-out and setting: under `C=Cn1ccnc1` [1-vinylimidazole] stands “improved binding to the active site”; under `Cc1nc2ccccc2[nH]1` [2-methyl-benzimidazole], “the inhibition constant drops about one order of magnitude”; under `Cn1cncc1CCN` [3-methyl-4-histamine], “considerable improvement of efficacy”.
Consider `O=C(O)CN(CCN(CC(=O)O)CC(=O)O)CC(=O)O` [EDTA], for which the “inhibition of mammalian QC” value in test [2] is listed as “did not inhibit”.
On to `COc1ccc(NC(=S)NCCCn2ccnc2)cc1` [Example 11, 1-(3-(1H-imidazol-1-yl)propyl)-3-(4-methoxyphenyl)thiourea], for which the Ki in test [1] amounted to 700 nM.
Same read-out and setting: under `CCOc1ccc(NC(=S)NCCCn2ccnc2)cc1` [Example 27, 1-(3-(1H-imidazol-1-yl)propyl)-3-(4-ethoxyphenyl)thiourea] stands 890 nM.
In test [1], `S=C(NCCCn1ccnc1)NCc1ccc2c(c1)OCO2` [Example 47] showed a Ki of 6100 nM.
As for `N#CN=C(NCCCn1ccnc1)NCc1ccc2c(c1)OCO2` [Example 81], in test [1], the Ki was 1530 nM.
For `O=C(NCCCn1ccnc1)Nc1cc(F)cc2c1OCOC2` [Example 97], the “Res. Act. (%)” value in test [1] (residual QC activity with inhibitor) came out at 19.0%.
On to `Cc1cc(=O)oc2cc(NC(=O)[C@@H](N)CCC(N)=O)ccc12` [H-Gln-AMC], for which the “kcat” value in test [3] (Human QC) was 5.3 ± 0.1 s⁻¹.
Same read-out and setting: the value for `C[C@H](NC(=O)[C@H](C)NC(=O)[C@@H](N)CCC(N)=O)C(N)=O` [H-Gln-Ala-Ala-NH2] (H-Gln-Ala-Ala-NH2) was 76.3 ± 0.7 s⁻¹; that for `C[C@H](NC(=O)[C@@H](N)CCC(N)=O)C(N)=O` [H-Gln-Ala-NH2] (H-Gln-Ala-NH2) was 40.1 ± 0.9 s⁻¹.
In the case of `C[C@H](NC(=O)[C@@H](N)CCC(N)=O)C(=O)O` [H-Gln-Ala-OH] (H-Gln-Ala-OH), the “kcat” value in test [3] (Human QC) was determined as 57.2 ± 0.4 s⁻¹; in test [3] (setting [7]), 54.4 ± 0.5 s⁻¹; in test [3] (setting [8]), 47.6 ± 0.6 s⁻¹. Moreover, the “Ki (mM)” value in test [3] (setting [7]) and in test [3] (setting [8]) was “n.i” in each case. In addition, in test [3] (Human QC), the “Ki* (mM)” value is on record as “n.i”.
Regarding `NC(=O)CC[C@H](NC(=O)[C@@H](N)CCC(N)=O)C(=O)O` [H-Gln-Gln-OH] (H-Gln-Gln-OH), in test [3] (Human QC), the “kcat” value is 20.7 ± 0.2 s⁻¹ and the “Ki* (mM)” value was “n.i”.
Take `NC(=O)CC[C@H](N)C(=O)N[C@@H](CCC(=O)O)C(=O)O` [H-Gln-Glu-OH] (H-Gln-Glu-OH): the results for the “kcat” value in test [3] (Human QC), in test [3] (setting [7]) and in test [3] (setting [8]) were 24.7 ± 0.2 s⁻¹, 21.4 ± 0.3 s⁻¹ and 18.9 ± 0.5 s⁻¹, respectively. The “Ki (mM)” value in test [3] (setting [7]) and in test [3] (setting [8]) was “n.i” throughout. Moreover, the “Ki* (mM)” value in test [3] (Human QC) is given as “n.i”.
Regarding `CC(C)C[C@H](NC(=O)[C@H](CCCNC(=N)N)NC(=O)[C@H](CCCCNC(=O)[C@@H](N)CCC(N)=O)NC(=O)[C@@H](N)CCC(N)=O)C(=O)N[C@@H](C)C(N)=O` [H-Gln-Lys(Gln)-Arg-Leu-Ala-NH2] (H-QK(Gln)RLA-NH2), the “conversion by human QC” value in test [4] was “converted”.
As to `NC(=O)CC[C@H](N)C(N)=O` [H-Gln-NH2], the results for the “kcat” value in test [3] (Human QC), in test [3] (setting [7]) and in test [3] (setting [8]) were 12.8 ± 0.5 s⁻¹, 12.8 ± 0.3 s⁻¹ and 12.2 ± 0.1 s⁻¹, respectively. The “Ki (mM)” value in test [3] (setting [7]) and in test [3] (setting [8]) was “n.i” each time. Further, in test [3] (Human QC), the “Ki* (mM)” value is reported as “n.i”. Moreover, the “conversion by human QC” value in test [4] is “converted glutaminamide to products readily”.
For `NC(=O)CC[C@H](N)C(=O)O` [H-Gln-OH], in test [3] (Human QC), the “KM (μM)” value is given as “n.r” and the “kcat (s^−1)” value is “n.r”. Besides, the “conversion by human QC” value in test [4] is on record as “no reactivity”.
For `CC(C)(C)OC(=O)C(N)CCC(N)=O` (stereo not drawn) [H-Gln-OtBu], in test [3] (Human QC), the “kcat” value is 6.7 ± 0.2 s⁻¹ and the “Ki* (mM)” value was “n.i”.
For `NC(=O)CC[C@H](N)C(=O)N[C@@H](Cc1ccc(O)cc1)C(=O)O` [H-Gln-Tyr-OH] (H-Gln-Tyr-OH) the same measures were 94 ± 1 s⁻¹ and “n.i”.
`CC(C)[C@H](NC(=O)[C@@H](N)CCC(N)=O)C(=O)O` [H-Gln-Val-OH] (H-Gln-Val-OH): in test [3] (Human QC), the “kcat” value was 17.2 ± 0.1 s⁻¹ and the “Ki* (mM)” value is recorded as “n.i”.
As to `COC(=O)CC[C@H](N)C(=O)N[C@@H](Cc1ccccc1)C(=O)N[C@@H](CCCCN)C(=O)N[C@@H](CCCNC(=N)N)C(=O)N[C@@H](CC(C)C)C(=O)N[C@@H](C)C(N)=O` [H-Glu(OMe)-Phe-Lys-Arg-Leu-Ala-NH2] (H-E(OMe)FKRLA-NH2), the “inhibition of human QC” value in test [1] is recorded as “not inhibited”.
In the case of `COC(=O)CC[C@H](N)C(=O)Nc1ccc2ccccc2c1` [H-Glu(OMe)-βNA], in test [4], the “conversion by human QC” value is on record as “None of these compounds were converted”.
Take `NCCc1c[nH]cn1` [L-Histamine]: the “inhibition of human QC” value in test [1] is recorded as “about one order of magnitude smaller compared to its acetylated counterpart”.
Consider `NC(=O)CC[C@H](N)C(=O)N[C@@H](CCC(=O)O)C(=O)N1CCC[C@H]1C(N)=O` [[Gln^1]-FPP] (H-Gln-Glu-Pro-NH2), for which, in test [3] (Human QC), the “kcat” value is 69.6 ± 0.3 s⁻¹.
Same read-out and setting: the value for `NC(=O)CC[C@H](N)C(=O)N[C@@H](Cc1c[nH]cn1)C(=O)N1CCC[C@H]1C(N)=O` [[Gln^1]-TRH] (H-Gln-His-Pro-NH2) was 82.8 ± 1.2 s⁻¹.
For the compound `c1ccc2[nH]cnc2c1` [benzimidazole], the “formation of [pGlu^3]Aβ3-11a or [pGlu^3]Aβ3-21a in presence of inhibitor” value in test [5] (5 mM inhibitor, pH 5.2 / 6.5) is listed as “suppressed”.
In the case of `c1c[nH]cn1` [imidazole], the “inhibition of human QC” value in test [6] is reported as “inhibited”.
EFRHDSGYE-NH2 [Aβ3-11a]: the “glutamate-containing peptide as QC-substrate” value in test [5] (pH 5.2 and 6.5) is listed as “can also serve as QC-substrates”.
On to “H-EFKRLA-NH2 [H-Glu-Phe-Lys-Arg-Leu-Ala-NH2]”, for which the “inhibition of human QC” value in test [1] was “not inhibited”.
With “H-Gln(NMe)-Phe-Lys-Ala-Glu-NH2 ({Gln(NMe)}-FKAE-NH2)”, in test [1], the “inhibition of human QC” value is reported as “not detected”. Further, the “conversion by human QC” value in test [4] is recorded as “No substrate conversion was observed”.
As to “H-Gln-cyclo(Nε-Lys-Arg-Pro-Ala-Gly-Phe) (H-QKRPAGF; lactam 2-C; SMILES C[C@@H]1NC(=O)[C@@H]2CCCN2C(=O)[C@H](CCCNC(=N)N)NC(=O)[C@@H](NC(=O)[C@@H](N)CCC(N)=O)CCCCNC(=O)[C@H](Cc2ccccc2)NC(=O)CNC1=O)”, in test [3] (Human QC), the “kcat” value turned out to be 22.8 ± 0.6 s⁻¹.
As to H-QAAAA-NH2 [H-Gln-Ala-Ala-Ala-Ala-NH2], in test [3] (Human QC), the “kcat” value is 60.5 ± 0.7 s⁻¹.
The same measure, in the same setting: under “H-QAASAA-NH2 [H-Gln-Ala-Ala-Ser-Ala-Ala-NH2]” stands 55.3 ± 1.6 s⁻¹.
On to QFRHDSGYE-NH2 [[Gln^3]Aβ3-11a], for which, in test [3] (setting [9]), the Km was determined as 87 ± 3 µM and the “kcat (s^−1)” value is listed as 55 ± 1^# s^−1. Further, in test [3] (setting [10]), the Km came to 155 ± 4 µM and the “kcat” value was 41.4 ± 0.4 s⁻¹.
In the case of “QFRHDSGYEVHHQKLVFFA-NH2 [[Gln^3]Aβ3-21a]”, the “kcat” value in test [3] (setting [10]) came out at 62 ± 3 s⁻¹.
For the compound [Gln^3]-glucagon (3-29): QC substrate, in test [3] (setting [10]), the Km is 19 ± 1 µM and the “kcat” value turned out to be 10.0 ± 0.2 s⁻¹. Moreover, in test [4], the “substrate conversion, determined qualitatively” value is reported as “*”.
“[Gln^5]-substance P (5-11): QC substrate (QQFFGLM; ends and bridges not checked)”: the “substrate conversion, determined qualitatively” value in test [4] is recorded as “*”.
Take phenylimidazole: the “inhibition of human QC” value in test [1] was “inactive under the experimental conditions”.
As for reduced 6-methylpterin, the “inhibition of mammalian QC” value in test [2] was “Inhibition”.

The term Ki denotes the equilibrium dissociation constant of an inhibitor or competing ligand from its target. Usually kcat stands for the number of substrate molecules converted per active site and unit of time at saturation. What is called Km is the concentration of substrate that gives half-maximal velocity.

Source of the values: patent publication US8809010B2, “Method for prophylactic treatment of alzheimer's disease using inhibitors of glutaminyl cyclase and glutamate cyclases” (Probiodrug AG, priority 2003, dated 2014).
